Reference: patent publication US20220249522A1, “Hypoxia Targeting Compositions and Combinations Thereof with a PARP Inhibitor and Methods of Use Thereof” (The Board of Trustees of the Leland Stanford Junior …, priority 2018, published 2022)

Columns and labels:
SUM149 cell line = test: Colony formation survival after 7 days PARP inhibitor in 21% or 2% oxygen; type: cell-based; conditions: olaparib 0-1 μM or talazoparib 0-10 nM; for survival fraction versus correspondingly treated samples at 21% oxygen: 2% oxygen; for survival fraction: 21% oxygen
Excerpt: (§1) FIGS. 1A-1D show plots of survival fraction versus olaparib (AZD-2281) concentration for SUM149 (FIG. 1A), CAPAN-1 (FIG. 1B), HT1080 (FIG. 1C), and OVCAR8 (FIG. 1D) cell lines cultured in 21% oxygen or 2% oxygen conditions.
(§2) FIGS. 2A-2D show plots of survival fraction versus talazoparib (BMN 673) concentration for SUM149 (FIG. 2A), CAPAN-1 (FIG. 2B), HT1080 (FIG. 2C), and OVCAR8 (FIG. 2D) cell lines cultured in 21% oxygen or 2% oxygen conditions.
(§3) Specifically, a series of cell lines deficient for HR were treated with PARP inhibitors (olaparib or talazoparib (BMN 673)) for 7 days in 21% oxygen (representative of normoxic conditions) or 2% oxygen (representative of hypoxic conditions). In duplicates, 250-2000 cells of each cell line were seeded in 6-well plates and treated with varying concentrations of olaparib (0-1 μM) or talazoparib (0-10 nM). At the end of the treatment, media from each well was changed to drug-free media and cells were incubated to allow for formation of colonies. At the end of each incubation, colonies were fixed in 70% ethanol and stained with Crystal Violet to facilitate counting of colonies. At least 3 biological replicates were performed for each condition tested. The HR deficient cell lines treated were SUM149 (a BRAC1 mutant, triple negative breast cancer cell line), CAPAN-1 (a BRAC2 mutant, pancreatic cancer cell line), HT1080 (an IDH mutant, fibrosarcoma cell line), and OVCAR8 (a hypermethylated BRAC1 promoter, ovarian serous adenocarcinoma (high grade) cell line).

CAPAN-1 cell line = test: as above; type: cell-based; conditions: olaparib 0-1 μM or talazoparib 0-10 nM; for survival fraction versus correspondingly treated samples at 21% oxygen: 2% oxygen; for survival fraction: 21% oxygen
Excerpt: as §1, §2, §3

HT1080 cell line = test: as above; type: cell-based; conditions: olaparib 0-1 μM or talazoparib 0-10 nM; for survival fraction versus correspondingly treated samples at 21% oxygen: 2% oxygen; for survival fraction: 21% oxygen
Excerpt: as §1, §2, §3

[1] = test system: breast patient-derived tumor xenografts (PDTXs); test: Olaparib efficacy in breast PDTX models in relation to hypoxia score; type: in vivo; conditions: archived PDTX data of Bruna et al; hypoxia signature of Buffa et al
Excerpt: FIGS. 7A-7D show a schematic of diagram of olaparib treatment in OVCAR8 xenografts (FIG. 7A), a Western blot analysis of PAR levels in tumor lysates (FIG. 7B), immunohistochemical staining of vehicle- and olaparib-treated tumors (FIG. 7C), and sensitivity to olaparib inversely correlates with hypoxia in Breast PDX models (FIG. 7D).
Efficacy of olaparib in a range of patient-derived tumor xenografts (PDTXs) were previously tested in vivo by Bruna et al and the results archived in a biobank (http://caldaslab.cruk.cam.ac.uk/bcape) (see Bruna et al. Cell 167, 260-274 (2016), the disclosure of which is incorporated herein by reference). The efficacy of olaparib in these breast PDTX models in relation to their hypoxia levels was analyzed. […] (Buffa et al. Br J Cancer 102, 428-35 (2010), the disclosure of which is incorporated herein by reference). This is in accordance with the data from in vitro studies.

[2] = test system: PARP enzyme activity in HT1080 cells; test: Western blot analysis of PAR formation; type: cell-based; conditions: olaparib 1 μM or talazoparib 10 nM, 7 days
Protocol: (§4) FIGS. 5A and 5B show western blot analyzes of the levels of poly(ADP-ribose) (PAR) in OVCAR8 cells (FIG. 5A) and HT1080 cells (FIG. 5B) following treatment with a vehicle, olaparib (AZD-2281; 1 μM), or talazoparib (BMN 673; 10 nM) cultured in 21% oxygen or 2% oxygen conditions.
(§5) Western blot analysis of PAR formation was conducted in OVCAR8 cells and HT1080 cells following treatment with a vehicle, olaparib (AZD-2281; 1 μM), or talazoparib (BMN 673; 10 nM) cultured in 21% oxygen or 2% oxygen conditions for 7 days. PAR levels in cell lysates were quantified using western blot.

[3] = test system: PARP enzyme activity in OVCAR8 cells; test: Western blot analysis of PAR formation; type: cell-based; conditions: olaparib 1 μM or talazoparib 10 nM, 7 days
Protocol: as §4, §5

OVCAR8 cell line = test: Colony formation survival after 7 days PARP inhibitor in 21%, 5% or 2% oxygen; type: cell-based; conditions: for survival in the presence of PARP inhibitor: olaparib 1 μM or talazoparib 10 nM; for survival fraction versus correspondingly treated samples at 21% oxygen: 2% oxygen; for survival fraction versus correspondingly treated samples at 21% oxygen / survival fraction: olaparib 0-1 μM or talazoparib 0-10 nM; for survival fraction: 21% oxygen
Excerpt: as §1, §2, §3
These observations were further evaluated using the OVCAR8 cell line samples at 21% oxygen, 5% oxygen, and 2% oxygen concentrations. Specifically, OVCAR8 cell line samples were cultured in 21% oxygen, 5% oxygen, or 2% oxygen conditions and were treated with a vehicle, olaparib (1 μM), or talazoparib (BMN 673; 10 nM) for 7 days. At the end of the treatment, media from each well was changed to a drug-free media and cells were incubated to allow for formation colonies.

[4] = test system: PARP enzyme activity in OVCAR8 xenografts; test: PAR levels in tumor lysates of xenografts (western blot); type: in vivo; conditions: olaparib 50 mg/kg daily intraperitoneal for 2 days
Protocol: OVCAR8 xenografts were established by subcutaneous injection of tumor cells in serum-free media/matrigel mix. Once tumors reached a size of about 100 mm^3, animals were divided into the following groups: (i) vehicle (10% 2-hydroxy-propyl-β-cyclodextrin/PBS) once a day via intraperitoneal injection (ii) olaparib (50 mg/kg) administered daily via intraperitoneal injection for 2 days. 3 animals were used per group.
Following completion of each treatment regimen, tumors were collected for analysis (FIG. 7A). PARP enzyme activity (measured via formation of PAR) was evaluated using western blot analysis.

OVCAR8 cells [5] = test: Survival fraction after 96 hours tirapazamine, PARP inhibitor or combination; type: cell-based; conditions: tirapazamine alone 0.1 μM or 1 μM, 21% or 2% oxygen
Protocol: FIGS. 10A-10C show histograms of survival fractions of OVCAR8 cells treated with a vehicle, tirapazamine, olaparib, olaparib plus tirapazamine, talazoparib, or talazoparib plus tirapazamine.
(§6) The in vitro efficacy of single agent tirapazamine or a single agent PARP inhibitor (olaparib or talazoparib) or combinations of tirapazamine and a PARP inhibitor (olaparib or talazoparib) was assessed in HR deficient cell lines (OVCAR8 and SUM149) at 21% oxygen and 2% oxygen concentrations. Specifically, OVCAR8 cells were seeded and treated with one of the following for 96 hours in 21% oxygen or 2% oxygen concentrations: (i) vehicle; (ii) tirapazamine (TPZ; 0.1 μM or 1 μM); (iii) olaparib (OL; 1 μM); (iv) tirapazamine (at concentrations above) plus olaparib (1 μM); (v) talazoparib (BMN; 10 nM); or tirapazamine (at concentrations above) plus talazoparib (10 nM). […] At the end of the treatment, media from each sample was changed to a drug-free media and cells were incubated to allow for formation colonies before survival fraction was determined.

SUM149 cells [6] = test: as above; type: cell-based; conditions: tirapazamine alone 0.1 μM or 1 μM, 21% or 2% oxygen
Protocol: FIGS. 11A-11C show histograms of survival fractions of SUM149 cells treated with a vehicle, tirapazamine, olaparib, olaparib plus tirapazamine, talazoparib, or talazoparib plus tirapazamine.
as §6

[7] = test system: non-small cell lung cancer and head and neck cancer; conditions: background statement; cited from earlier work
OVCAR8 cells [8] = test: Tirapazamine x PARPi dose matrix, survival and synergy analysis (Combenefit); type: cell-based; conditions: for tirapazamine doses required to achieve a synergy score of 30-40: with 10 nM BMN673; for tirapazamine dose required for a synergy score of 20-30: with 0.1 μM olaparib
Protocol: FIGS. 8A and 8B show survival percentage of OVCAR8 cells treated with olaparib (0.001-10 μM) and TPZ (0.1-50 μM) or BMN673 (0.01-20 nM) and TPZ (0.1-50 μM) (FIG. 8A), and HSA synergism analysis of OVCAR8 cells treated with varying doses of TPZ and olaparib or TPZ and BMN673 (FIG. 8B).
(§7) The effect of combining a hypoxia activated prodrug with PARPi on cellular toxicity was assessed. […] Combenefit; a validated, open-access software program was used to analyze the data and quantify possible synergistic or antagonistic drug interactions, and relative cell kill data are presented as survival curves (FIG. 8A& 9A), while synergy scores are presented in matrix format (FIG. 8B& 9B). […] Examples are highlighted with the red squares in the matrix plots. In OVCAR8 cells for example, tirapazamine doses required to achieve a synergy score of 30-40 when cells are treated with 10 nM BMN673 are 0.5-1 μM in hypoxia and 5-10 μM in normoxia.

SUM149 cells [9] = test: as above; type: cell-based; conditions: combination with PARPi (olaparib and BMN673)
Protocol: FIGS. 9A and 9B show survival percentage of SUM149 cells treated with olaparib (0.001-10 μM) and TPZ (0.1-50 μM) or BMN673 (0.01-20 nM) and TPZ (0.1-50 μM) (FIG. 9A), and HSA synergism analysis of SUM149 cells treated with varying doses of TPZ and olaparib or TPZ and BMN673 (FIG. 9B).
as §7

[10] = 2% oxygen compared to 5% oxygen
[11] = 2% oxygen compared to 21% oxygen
[12] = 5% oxygen compared to 21% oxygen

Structure (SMILES)	survival fraction versus correspondingly treated samples at 21% oxygen (SUM149 cell line)	survival fraction (SUM149 cell line)	survival fraction versus correspondingly treated samples at 21% oxygen (CAPAN-1 cell line)	survival fraction (CAPAN-1 cell line)	survival fraction versus correspondingly treated samples at 21% oxygen (HT1080 cell line)	survival fraction (HT1080 cell line)	PAR formation ([2]; 2% oxygen)	PAR formation ([2]; 21% oxygen)	PAR formation ([3]; 2% oxygen)	PAR formation ([3]; 21% oxygen)	survival in the presence of PARP inhibitor (OVCAR8 cell line; [10])	survival in the presence of PARP inhibitor (OVCAR8 cell line; [11])	survival fraction versus correspondingly treated samples at 21% oxygen (OVCAR8 cell line)	survival in the presence of PARP inhibitor (OVCAR8 cell line; [12])	survival fraction (OVCAR8 cell line)	further results
O=C(c1cc(Cc2n[nH]c(=O)c3ccccc23)ccc1F)N1CCN(C(=O)C2CC2)CC1 [olaparib]	higher survival fractions	reduced	higher survival fractions	reduced	higher survival fractions	reduced	reduced PAR formation	reduced PAR formation	reduced PAR formation	reduced PAR formation	significantly improved survival	significantly improved survival	higher survival fractions	significantly improved survival	reduced	correlation between hypoxia score of the tumors and their sensitivity to olaparib therapy [1]: strong inverse correlation; PAR formation in xenograft samples [4]: no evidence of PAR formation
Cn1ncnc1[C@H]1c2n[nH]c(=O)c3cc(F)cc(c23)N[C@@H]1c1ccc(F)cc1 [talazoparib]	higher survival fractions	reduced	higher survival fractions	reduced	higher survival fractions	reduced	reduced PAR formation	reduced PAR formation	reduced PAR formation	reduced PAR formation	significantly improved survival	significantly improved survival	higher survival fractions	significantly improved survival	reduced	
Nc1n[n+]([O-])c2ccccc2[n+]1[O-] [tirapazamine, 3-amino-1,2,4-benzotriazine-1,4-dioxide]																cell survival fraction as compared to the vehicle (OVCAR8 cells [5]): did not have a significant effect; cell survival fraction as compared to the vehicle (SUM149 cells [6]): did not have a significant effect; efficacy in clinical trials [7]: lack of efficacy; fold lower doses of tirapazamine required under hypoxic conditions to achieve similar or even higher synergy scores to normoxic conditions (OVCAR8 cells [8]; combination with PARPi (olaparib and BMN673)): 10 fold; tirapazamine doses required to achieve a synergy score of 30-40 (OVCAR8 cells [8]; hypoxia): 0.5 to 1 µM; tirapazamine doses required to achieve a synergy score of 30-40 (OVCAR8 cells [8]; normoxia): 5 to 10 µM; tirapazamine dose required for a synergy score of 20-30 (OVCAR8 cells [8]; hypoxia): 1 µM; tirapazamine dose required for a synergy score of 20-30 (OVCAR8 cells [8]; normoxia): 10 µM; fold lower doses of tirapazamine required under hypoxic conditions to achieve similar or even higher synergy scores to normoxic conditions (SUM149 cells [9]): 10 fold
